This is an account of results in patent US10758534B2 (Vertex Pharmaceuticals Incorporated, priority 2014, dated 2020).

A value given as a limit tells only on which side of the number the result lay.

The target in the first experiment is T1, F508del (Homo sapiens, UniProt P13569, DEL508-508).
T1 construct: expressed in transfected cells
T1 sequence (P13569 with tags, fused parts or gaps DEL508-508): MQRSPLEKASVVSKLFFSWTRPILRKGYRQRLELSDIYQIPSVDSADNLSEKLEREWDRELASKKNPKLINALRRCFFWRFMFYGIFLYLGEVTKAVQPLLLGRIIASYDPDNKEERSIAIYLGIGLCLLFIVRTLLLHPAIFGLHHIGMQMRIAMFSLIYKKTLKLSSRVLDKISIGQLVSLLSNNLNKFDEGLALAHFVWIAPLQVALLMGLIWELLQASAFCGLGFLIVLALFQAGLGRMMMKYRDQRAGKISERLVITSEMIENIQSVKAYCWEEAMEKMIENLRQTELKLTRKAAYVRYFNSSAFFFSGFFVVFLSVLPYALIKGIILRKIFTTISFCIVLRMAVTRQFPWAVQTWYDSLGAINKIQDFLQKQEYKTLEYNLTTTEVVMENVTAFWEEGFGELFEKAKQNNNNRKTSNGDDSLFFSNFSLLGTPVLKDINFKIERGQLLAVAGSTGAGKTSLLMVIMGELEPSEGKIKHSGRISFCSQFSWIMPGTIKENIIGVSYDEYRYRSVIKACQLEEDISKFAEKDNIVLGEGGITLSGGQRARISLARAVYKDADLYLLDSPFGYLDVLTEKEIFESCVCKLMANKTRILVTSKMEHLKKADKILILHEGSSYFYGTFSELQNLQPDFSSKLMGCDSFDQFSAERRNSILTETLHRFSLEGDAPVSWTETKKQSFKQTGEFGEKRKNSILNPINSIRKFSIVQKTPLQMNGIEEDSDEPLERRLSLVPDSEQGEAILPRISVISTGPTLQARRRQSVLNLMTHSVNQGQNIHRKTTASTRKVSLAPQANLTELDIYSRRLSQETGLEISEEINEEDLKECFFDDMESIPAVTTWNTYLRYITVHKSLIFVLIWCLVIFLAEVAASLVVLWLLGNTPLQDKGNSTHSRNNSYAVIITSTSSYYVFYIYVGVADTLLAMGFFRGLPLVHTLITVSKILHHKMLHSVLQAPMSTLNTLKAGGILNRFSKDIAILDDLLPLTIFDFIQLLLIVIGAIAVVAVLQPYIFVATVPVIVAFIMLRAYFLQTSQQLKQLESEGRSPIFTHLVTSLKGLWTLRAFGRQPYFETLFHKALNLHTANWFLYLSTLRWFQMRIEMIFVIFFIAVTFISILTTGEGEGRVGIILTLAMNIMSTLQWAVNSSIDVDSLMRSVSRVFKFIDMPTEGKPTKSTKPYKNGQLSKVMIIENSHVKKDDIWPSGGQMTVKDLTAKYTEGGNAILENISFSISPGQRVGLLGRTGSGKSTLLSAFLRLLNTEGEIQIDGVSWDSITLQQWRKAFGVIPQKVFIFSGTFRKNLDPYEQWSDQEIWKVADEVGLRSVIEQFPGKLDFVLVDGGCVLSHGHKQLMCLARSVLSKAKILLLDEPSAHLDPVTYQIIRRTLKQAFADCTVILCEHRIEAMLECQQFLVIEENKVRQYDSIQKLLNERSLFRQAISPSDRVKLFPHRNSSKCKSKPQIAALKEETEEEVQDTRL
The experiment can be described thus: Protocol 2: FRET membrane potential optical assay (VIPR), identification of correction compounds. In kind it is cell-based.
Conditions: not given
The gist of the method: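 Corrector readout: membrane-potential FRET (CC2-DMPE donor, DiSBAC2(3) acceptor) on VIPR II after Cl⁻-free gluconate bath with 10 μM forskolin and 20 μM genistein. Before this, F508del-expressing NIH3T3 cells were exposed to test compound for 16 h at 37 °C without serum; 27 °C incubation served as temperature-correction control.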
With `C[C@@H]1CN(c2nc(C3=CC4CCC3C4)ccc2C(=O)NS(=O)(=O)c2cccc(N)n2)C(C)(C)C1` (some centres unmarked) [Compound 2703], the EC30 is under 3000 nM.

Still in this experiment, the particulars now being: F508del CFTR modulator activity; compounds of Table 1; read-out: EC30.
For the compound `CC1CN(c2nc(OC(C)C3CC3)c(F)cc2C(=O)NS(=O)(=O)c2cccc(N)n2)C(C)(C)C1` (centres unmarked) [Compound 2373, N-[(6-amino-2-pyridyl)sulfonyl]-6-(1-cyclopropylethoxy)-5-fluoro-2-(2,2,4-trimethylpyrrolidin-1-yl)pyridine-3-carboxamide], the 30% effect concentration (EC30) was under 3000 nM. Turning to `CC1CN(c2ncccc2C(=O)NS(=O)(=O)c2cccc(OCc3cccc(F)c3)n2)C(C)(C)C1` (centres unmarked) [Compound 2409, N—[[6-[(3-fluorophenyl)methoxy]-2-pyridyl]sulfonyl]-2-(2,2,4-trimethylpyrrolidin-1-yl)pyridine-3-carboxamide], the EC30 is under 3000 nM. Regarding `C[C@@H]1CN(c2nc(C3CCCOC3)ccc2C(=O)NS(=O)(=O)c2cccnc2N)C(C)(C)C1` (stereo partly drawn) [Compound 2311, N-[(2-amino-3-pyridyl)sulfonyl]-6-tetrahydropyran-3-yl-2-[(4S)-2,2,4-trimethylpyrrolidin-1-yl]pyridine-3-carboxamide], the EC30 is under 3000 nM. Take `CCCCCCN1CCN(c2cccc(S(=O)(=O)NC(=O)c3cccnc3N3CC(C)CC3(C)C)n2)CC1` (centres unmarked) [Compound 2423, N—[[6-(4-hexylpiperazin-1-yl)-2-pyridyl]sulfonyl]-2-(2,2,4-trimethylpyrrolidin-1-yl)pyridine-3-carboxamide]: the EC30 was under 3000 nM. Consider `CC1CN(c2ncccc2C(=O)NS(=O)(=O)c2cccc(OC3CCOc4ccccc43)n2)C(C)(C)C1` (centres unmarked) [Compound 2737], for which the EC30 is under 3000 nM.

Regarding `C[C@@H]1CN(c2nc(-c3ccc(F)cc3F)ccc2C(=O)NS(=O)(=O)c2cccnc2N)C(C)(C)C1` [Compound 2447, N-[(2-amino-3-pyridyl)sulfonyl]-6-(2,4-difluorophenyl)-2-[(4S)-2,2,4-trimethylpyrrolidin-1-yl]pyridine-3-carboxamide], the EC30 is under 3000 nM.

For the compound `Cc1ccc2nc(N3C[C@@H](C)CC3(C)C)c(C(=O)NS(=O)(=O)c3ccc[nH]c3=O)cc2c1` [Compound 2471, 6-methyl-N-[(2-oxo-1H-pyridin-3-yl)sulfonyl]-2-[(4S)-2,2,4-trimethylpyrrolidin-1-yl]quinoline-3-carboxamide], the EC30 is 3000 to 10000 nM.

The same experiment, now with this note: Table 3; compounds of Table 1 as modulators of CFTR activity; protocol not stated.
Consider `CCOc1ccccc1-c1ccc(C(=O)NS(=O)(=O)c2cccc(N)n2)c(Oc2c(C)cc(C)cc2C)n1` [Compound 250, N-[(6-amino-2-pyridyl)sulfonyl]-6-(2-ethoxyphenyl)-2-(2,4,6-trimethylphenoxy)pyridine-3-carboxamide], for which the EC30 result is “+++ (“+++” means <3 uM)”. The same measure, in the same setting: next, `Cc1cccc(C)c1Cn1c(C(=O)NS(=O)(=O)c2ccccc2)cc2ccccc21` [Compound 2, N-(benzenesulfonyl)-1-[(2,6-dimethylphenyl)methyl]indole-2-carboxamide]: “+++ (“+++” means <3 uM)”; `CCOc1ccc(-c2ccc(C(=O)NS(=O)(=O)c3cccc(N)n3)c(Oc3c(C)cc(C)cc3C)n2)c(F)c1` [Compound 602, N-[(6-amino-2-pyridyl)sulfonyl]-6-(4-ethoxy-2-fluoro-phenyl)-2-(2,4,6-trimethylphenoxy)pyridine-3-carboxamide]: “+++ (“+++” means <3 uM)”. Consider `Cc1cc(C)c(CN2C[C@H](c3ccccc3)C[C@@H]2C(=O)NS(=O)(=O)c2cccc(N)n2)c(C)c1` [Compound 467, (2R,4S)—N-[(6-amino-2-pyridyl)sulfonyl]-4-phenyl-1-[(2,4,6-trimethylphenyl)methyl]pyrrolidine-2-carboxamide], for which the EC30 result was “++ (“++” means between 3 uM and 10 uM)”. `Cc1cc(C)c(Oc2nc(-c3ccc(F)cc3O)ccc2C(=O)NS(=O)(=O)c2cccc(N)n2)c(C)c1` [Compound 622, N-[(6-amino-2-pyridyl)sulfonyl]-6-(4-fluoro-2-hydroxy-phenyl)-2-(2,4,6-trimethylphenoxy)pyridine-3-carboxamide]: the EC30 entry is recorded as “+++ (“+++” means <3 uM)”. As to `CC(C)COc1cc(F)cc(-c2ccc(C(=O)NS(=O)(=O)c3ccc[nH]c3=O)c(N3CCC[C@@H](c4ccccc4)C3)n2)c1` [Compound 481, 6-(3-fluoro-5-isobutoxy-phenyl)-N-[(2-oxo-1H-pyridin-3-yl)sulfonyl]-2-[(3S)-3-phenyl-1-piperidyl]pyridine-3-carboxamide], the 30% effect concentration (EC30) entry was “+++ (“+++” means <3 uM)”.

With `Cc1cc(C)c(Cn2nc(C(C)C)cc2C(=O)NS(=O)(=O)c2cccc(N)c2)c(C)c1` [Compound 566, N-(3-aminophenyl)sulfonyl-5-isopropyl-2-[(2,4,6-trimethylphenyl)methyl]pyrazole-3-carboxamide], the EC30 result was “+ (“+” means greater than 10 uM)”.

In the case of `Cc1cccc(C)c1Cn1nc(-c2cccc3c2ccn3C)cc1C(=O)NS(=O)(=O)c1ccccc1` [Compound 363, N-(benzenesulfonyl)-2-[(2,6-dimethylphenyl)methyl]-5-(1-methylindol-4-yl)pyrazole-3-carboxamide], the 30% effect concentration (EC30) result is “+++ (“+++” means <3 uM)”. Still for that read-out and setting: next, `Cc1ccc(-c2nc(C(C)(C)C)ccc2C(=O)NS(=O)(=O)c2cccc(N)c2)cc1` [Compound 301, N-(3-aminophenyl)sulfonyl-6-tert-butyl-2-(p-tolyl)pyridine-3-carboxamide]: “++ (“++” means between 3 uM and 10 uM)”.

Consider `Cc1cc(C)c(Oc2nc(-c3cnc(N4CCCCC4)nc3)ccc2C(=O)NS(=O)(=O)c2cccc(N)n2)c(C)c1` [Compound 475, N-[(6-amino-2-pyridyl)sulfonyl]-6-[12-(1-piperidyl)pyrimidin-5-yl]-2-(2,4,6-trimethylphenoxy)pyridine-3-carboxamide], for which the EC30 entry is “+++ (“+++” means <3 uM)”. For the compound `Cc1cc(C)c(Oc2nc(C(C)(C)C)ccc2C(=O)NS(=O)(=O)c2cn[nH]c2)c(C)c1` [Compound 401, 6-tert-butyl-N-(1H-pyrazol-4-ylsulfonyl)-2-(2,4,6-trimethylphenoxy)pyridine-3-carboxamide], the EC30 result is “+++ (“+++” means <3 uM)”. Regarding `Cc1ccc(C(F)(F)F)c(Cn2nc(C(C)(C)C)cc2C(=O)NS(=O)(=O)c2ccccc2)c1` [Compound 304, N-(benzenesulfonyl)-5-tert-butyl-2-[[5-methyl-2-(trifluoromethyl)phenyl]methyl]pyrazole-3-carboxamide], the 30% effect concentration (EC30) entry is recorded as “+++ (“+++” means <3 uM)”.

Another experiment addresses T1, F508del. The experiment can be described thus: Protocol 1: membrane potential optical assay (FLIPR III, voltage sensing dye), identification of potentiator compounds. In kind it is cell-based. The note with it: Table 3, compounds of Table 1. The source says: Membrane Potential Optical Methods for Assaying F508del Modulation Properties of Compounds
The assay utilizes fluorescent voltage sensing dyes to measure changes in membrane potential using a fluorescent plate reader (e.g., FLIPR III, Molecular Devices, Inc.) as a readout for increase in functional F508del in NIH 3T3 cells. The driving force for the response is the creation of a chloride ion gradient in conjunction with channel activation by a single liquid addition step after the cells have previously been treated with compounds and subsequently loaded with a voltage sensing dye.
Identification of Potentiator Compounds
To identify potentiators of F508del, a double-addition HTS assay format was developed. This HTS assay utilizes fluorescent voltage sensing dyes to measure changes in membrane potential on the FLIPR III as a measurement for increase in gating (conductance) of F508del in temperature-corrected F508del NIH 3T3 cells. The driving force for the response is a Cl^− ion gradient in conjunction with channel activation with forskolin in a single liquid addition step using a fluorescent plate reader such as FLIPR III after the cells have previously been treated with potentiator compounds (or DMSO vehicle control) and subsequently loaded with a redistribution dye.
Bath Solution #1: (in mM) NaCl 160, KCl 4.5, CaCl2 2, MgCl2 1, HEPES 10, pH 7.4 with NaOH.
Chloride-free bath solution: Chloride salts in Bath Solution #1 (above) are substituted with gluconate salts.
NIH3T3 mouse fibroblasts stably expressing F508del are used for optical measurements of membrane potential. The cells are maintained at 37° C. in 5% CO2 and 90% humidity in Dulbecco's modified Eagle's medium supplemented with 2 mM glutamine, 10% fetal bovine serum, 1×NEAA, β-ME, 1× pen/strep, and 25 mM HEPES in 175 cm^2 culture flasks. For all optical assays, the cells were seeded at ˜20,000/well in 384-well matrigel-coated plates and cultured for 2 hrs at 37° C. before culturing at 27° C. for 24 hrs. for the potentiator assay. For the correction assays, the cells are cultured at 27° C. or 37° C. with and without compounds for 16-24 hours.
Consider `CC(C)Oc1ccc(-c2cnc(C(=O)NS(=O)(=O)c3cccc(N)n3)c(N3[C@H](C)CC[C@@H]3C)n2)cn1` [Compound 1651, N-[(6-amino-2-pyridyl)sulfonyl]-3-[(2S,5R)-2,5-dimethylpyrrolidin-1-yl]-5-(6-isopropoxy-3-pyridyl)pyrazine-2-carboxamide], for which the EC30 entry was “++ (“++” means between 3 uM and 10 uM)”. Consider `Cc1cc(C)c(Oc2nc(C3=CC(C)(C)OCC3)ccc2C(=O)NS(=O)(=O)c2cccc(N)n2)c(C)c1` [Compound 1460, N-[(6-amino-2-pyridyl)sulfonyl]-6-(6,6-dimethyl-2,3-dihydropyran-4-yl)-2-(2,4,6-trimethylphenoxy)pyridine-3-carboxamide], for which the EC30 result was “+++ (“+++” means <3 uM)”. `CC1CN(c2ncccc2C(=O)NS(=O)(=O)c2cccc(O[C@H](C)c3ccccc3)n2)C(C)(C)C1` (stereo partly drawn) [Compound 1842, N—[[6-[(1R)-1-phenylethoxy]-2-pyridyl]sulfonyl]-2-(2,2,4-trimethylpyrrolidin-1-yl)pyridine-3-carboxamide]: the EC30 result is reported as “+++ (“+++” means <3 uM)”.

For the compound `CCOc1cccc2c1CN(Cc1c(C)cc(C)cc1C)C2(C)C(=O)NS(=O)(=O)c1ccc(CC)c(N)c1` (centres unmarked) [Compound 1584, N-(3-amino-4-ethyl-phenyl)sulfonyl-4-ethoxy-1-methyl-2-[(2,4,6-trimethylphenyl)methyl]isoindoline-1-carboxamide], the 30% effect concentration (EC30) result is “+++ (“+++” means <3 uM)”. `CCOc1ccc(-c2ccc(C(=O)NS(=O)(=O)c3nccnc3N)c(Oc3c(C)cc(C)cc3C)n2)cc1` [Compound 1019, N-(3-aminopyrazin-2-yl)sulfonyl-6-(4-ethoxyphenyl)-2-(2,4,6-trimethylphenoxy)pyridine-3-carboxamide]: the EC30 entry is reported as “+++ (“+++” means <3 uM)”. For the compound `CCOc1cccc2c1CN(Cc1c(C)cc(C)cc1C)C2(C)C(=O)NS(=O)(=O)c1cccnc1N` (centres unmarked) [Compound 1591, N-[(2-amino-3-pyridyl)sulfonyl]-4-ethoxy-1-methyl-2-[(2,4,6-trimethylphenyl)methyl]isoindoline-1-carboxamide], the EC30 result is on record as “+++ (“+++” means <3 uM)”.
